PMC6301270 (MedChemComm, 2018)

Tested on: T.b. brucei (strain 427) bloodstream form parasites
Experiment: T.b. brucei single concentration screen (10 μM)
Settings: Trypanosoma brucei, read-out: T.b.brucei % viability (10 µM)

Structure (SMILES) | viability at 10 µM
CC1(C)OB(O)c2ccc(C3=NOC(c4cc(Cl)c(F)c(Cl)c4)(C(F)(F)F)C3)cc21 (centres unmarked) [MMV687775, CC1(C)OB(O)c2ccc(cc12)C3=NOC(C3)(c4cc(Cl)c(F)c(Cl)c4)C(F)(F)F] | 33%
CC1(C)Cc2c(c(N3CCOCC3)nc3snc(Br)c23)CO1 [MMV687794, CC1(C)Cc2c(CO1)c(nc3snc(Br)c23)N4CCOCC4] | 50%
O=C1O[C@@H](COc2ccon2)CN1c1cc(F)c(C2=CCN(Cc3ccccc3)CC2)c(F)c1 [MMV687813, Fc1cc(cc(F)c1C2=CCN(Cc3ccccc3)CC2)N4C[C@H](COc5ccon5)OC4=O] | 113%
Cc1cccc(-c2nc(Nc3ccncn3)c3sccc3n2)n1 [MMV688122, Cc1cccc(n1)c2nc(Nc3ccncn3)c4sccc4n2] | 85%
CCc1ccc(S(=O)(=O)Nc2cc(CN3CCN(CCC(C)C)CC3)ccc2C)cc1 [MMV688124, CCc1ccc(cc1)S(=O)(=O)Nc2cc(CN3CCN(CCC(C)C)CC3)ccc2C] | 84%
CCCc1ccc(S(=O)(=O)Nc2ccc(CN3CCN(CC4CC4)CC3)cc2)cc1 [MMV688125, CCCc1ccc(cc1)S(=O)(=O)Nc2ccc(CN3CCN(CC4CC4)CC3)cc2] | 72%
c1ccc(Oc2ccc(-c3cncc(-c4ccc5[nH]ccc5c4)n3)cc2)cc1 [MMV688178, O(c1ccccc1)c1ccc(cc1)-c1cncc(n1)-c1ccc2[nH]ccc2c1] | 101%
CC1(COc2ccc(N3CCC(Oc4ccc(OC(F)(F)F)cc4)CC3)cc2)Cn2cc([N+](=O)[O-])nc2O1 (centres unmarked) [MMV688262, CC1(COc2ccc(cc2)N3CCC(CC3)Oc4ccc(OC(F)(F)F)cc4)Cn5cc(nc5O1)N(=O)=O] | 74%
COc1ccc(-c2cnc3cnc(-c4cccc(OC(C)C)c4)cn23)cc1 [MMV688270, COc1ccc(cc1)-c1cnc2cnc(cn12)-c1cccc(OC(C)C)c1] | 99%
Nc1ccc2ncnc(Nc3ccc(OCc4cccc(F)c4)c(Cl)c3)c2c1 [MMV688273, Nc1ccc2ncnc(Nc3ccc(OCc4cccc(F)c4)c(Cl)c3)c2c1] | 56%
O=C(CN1CCOCC1)Nc1ccc2ncnc(Nc3ccc(OCc4cccc(F)c4)c(Cl)c3)c2c1 [MMV688274, Fc1cccc(COc2ccc(Nc3ncnc4ccc(NC(=O)CN5CCOCC5)cc34)cc2Cl)c1] | 63%
COc1ccc(-c2nnc3ccc(-c4cccc(C(C)C)c4)cn23)cc1OC [MMV688313, COc1ccc(cc1OC)-c1nnc2ccc(cn12)-c1cccc(c1)C(C)C] | 92%
CC(=O)NCC1CN(c2ccc(-c3ccc(CNCc4cn[nH]n4)cc3)c(F)c2)C(=O)O1 (centres unmarked) [MMV688327, CC(=O)NCC1CN(C(=O)O1)c2ccc(c(F)c2)c3ccc(CNCc4cn[nH]n4)cc3] | 68%
CC(=O)N1CCN(c2ccc(Oc3ccc(Cl)cc3O)cc2)CC1 [MMV688330, CC(=O)N1CCN(CC1)c1ccc(Oc2ccc(Cl)cc2O)cc1] | 103%
Nc1nc(N)c2c3c(sc2n1)CN(Cc1ccccc1)CC3 [MMV688345, Nc1nc(N)c2c3CCN(Cc4ccccc4)Cc3sc2n1] | 110%
COC(=O)c1ccc(F)cc1NS(=O)(=O)c1cccc(-c2cnn(Cc3ccccc3)c2)c1 [MMV688350, COC(=O)c1ccc(F)cc1NS(=O)(=O)c2cccc(c2)c3cnn(Cc4ccccc4)c3] | 85%
O=C1[C@@H](Oc2ccccc2)[C@@H](c2ccc(Cl)cc2)N1CCn1cnc2c(NCc3ccccc3)ncnc21 [MMV688352, Clc1ccc(cc1)[C@@H]2[C@H](Oc3ccccc3)C(=O)N2CCn4cnc5c(NCc6ccccc6)ncnc45] | 107%
c1cc(C2=NCCN2)cc(-c2cc(-c3ccc(C4=NCCN4)cc3)no2)c1 [MMV688361, C1CN=C(N1)c2ccc(cc2)c3cc(on3)c4cccc(c4)C5=NCCN5] | 18%
COc1cc(C2=NCCN2)cc2cc(-c3ccc(C4=NCCN4)cc3)oc12 [MMV688362, COc1cc(cc2cc(oc12)c3ccc(cc3)C4=NCCN4)C5=NCCN5] | 35%
CC(C)(C)OC(=O)N1CCC(Cn2nc(-c3cnc4ccccc4c3)c3c(N)ncnc32)CC1 [MMV688364, CC(C)(C)OC(=O)N1CCC(Cn2nc(-c3cnc4ccccc4c3)c3c(N)ncnc23)CC1] | 102%
